# US10131652B2, “Pyrimidinyloxy benzene derivatives as herbicides” (E. I. DU PONT DE NEMOURS AND COMPANY, priority 2014, dated 2018)
# Read-outs that look alike come from different tables or passages of the source.
# Tests used:
# Assay type in all cases: in vivo
# [1] = system: waterhemp_RES1 (ALS & Triazine resistant common waterhemp, Amaranthus rudis); assay: Test F postemergence plant response; conditions: scale 0 to 100
# Outline: (§1)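 Postemergence application to plants 2–18 cm tall (1- to 4-leaf stage), then held in greenhouse 14–21 days. Visual rating against untreated controls on a 0–100 scale (0 no effect, 100 complete control).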
# [2] = system: waterhemp_RES2 (ALS & HPPD resistant common waterhemp, Amaranthus rudis); assay: Test F postemergence plant response; conditions: scale 0 to 100
# Outline: as §1
# [3] = system: morningglory (Ipomoea spp.); assay: Test B pre-/postemergence plant response; conditions: Ipomoea, 240 h, 1000 g ai/ha, 0 to 100 scale (0 no effect, 100 complete control), read-out: Plant response rating, Morningglory
# Outline: (§2)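 Visual injury rating, 0 (no effect) to 100 (complete control), vs untreated controls after ~10 d greenhouse. Pre: directed soil spray after planting in loam/sand. Post: plants 2–10 cm, 1–2 leaf stage. Compound in non-phytotoxic solvent plus surfactant.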
# [4] = system: large (Lg) crabgrass (Digitaria sanguinalis); assay: Test B pre-/postemergence plant response; conditions: Digitaria sanguinalis, 240 h, 1000 g ai/ha, 0 to 100 scale (0 no effect, 100 complete control), read-out: Plant response rating, Crabgrass, Large
# Outline: as §2
# [5] = system: velvetleaf (Abutilon theophrasti); assay: Test B pre-/postemergence plant response; conditions: Abutilon theophrasti, 240 h, 1000 g ai/ha, 0 to 100 scale (0 no effect, 100 complete control), read-out: Plant response rating, Velvetleaf
# Outline: as §2
# [6] = system: nightshade (eastern black nightshade, Solanum ptycanthum); assay: Test F pre-/postemergence plant response; conditions: Solanum, pre-emergence, scale 0 to 100, read-out: Plant response rating, Nightshade
# Outline: (§3)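 Seeds were sown in silt loam and sprayed preemergence; in parallel, plants at 2–18 cm (1- to 4-leaf) received postemergence sprays. Test chemicals were in a non-phytotoxic solvent with surfactant. After 14–21 days in the greenhouse, injury was rated visually against controls on a 0–100 scale (100 = complete control).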
# [7] = system: field bindweed (Convolvulus arvensis); assay: Test F pre-/postemergence plant response; conditions: Convolvulus arvensis, scale 0 to 100, read-out: Plant response rating, Field Bindweed
# Outline: as §3
# [8] = system: giant foxtail (Setaria faberii); assay: Test F pre-/postemergence plant response; conditions: Setaria faberi, pre-emergence, scale 0 to 100, read-out: Plant response rating, Foxtail, Giant
# Outline: as §3
# [9] = system: large (Lg) crabgrass (Digitaria sanguinalis); assay: Test F pre-/postemergence plant response; conditions: Digitaria sanguinalis, pre-emergence, scale 0 to 100, read-out: Plant response rating, Crabgrass, Large
# Outline: as §3
# [10] = system: fall panicum (Panicum dichotomiflorum); assay: Test F pre-/postemergence plant response; conditions: Panicum dichotomiflorum, scale 0 to 100, read-out: Plant response rating, Panicum, Fall
# Outline: as §3
# [11] = system: morningglory (Ipomoea coccinea); assay: Test F pre-/postemergence plant response; conditions: Ipomoea, pre-emergence, scale 0 to 100, read-out: Plant response rating, Morningglory
# Outline: as §3
# kochia (Kochia scoparia) = assay: Test F pre-/postemergence plant response; conditions: Bassia scoparia, pre-emergence, scale 0 to 100, read-out: Plant response rating, Kochia
# Outline: as §3
# [12] = post-emergence, 8 g ai/ha Postemergence
# [13] = post-emergence, 16 g ai/ha Postemergence
# [14] = post-emergence, 31 g ai/ha Postemergence
# [15] = post-emergence, 62 g ai/ha Postemergence
# [16] = post-emergence, 125 g ai/ha Postemergence
# [17] = pre-emergence, 8 g ai/ha Preemergence
# [18] = pre-emergence, 16 g ai/ha Preemergence
# [19] = pre-emergence, 31 g ai/ha Preemergence
# [20] = pre-emergence, 125 g ai/ha Preemergence
smiles,measurement,setting,value
"FC(F)c1cc(-c2ccccc2Oc2ncc(Cl)cn2)no1 [Compound 35, 5-chloro-2-[2-[5-(difluoromethyl)-3-isoxazolyl]phenoxy]pyrimidine]","Plant response rating, Waterhemp_RES1",[1]; 8 g ai/ha Postemergence,90
same,"Plant response rating, Waterhemp_RES1",[1]; 16 g ai/ha Postemergence,80
same,"Plant response rating, Waterhemp_RES1",[1]; 31 g ai/ha Postemergence,90
same,"Plant response rating, Waterhemp_RES1",[1]; 62 g ai/ha Postemergence,100
same,"Plant response rating, Waterhemp_RES1",[1]; 125 g ai/ha Postemergence,100
same,"Plant response rating, Waterhemp_RES2",[2]; 8 g ai/ha Postemergence,90
same,"Plant response rating, Waterhemp_RES2",[2]; 16 g ai/ha Postemergence,90
same,"Plant response rating, Waterhemp_RES2",[2]; 31 g ai/ha Postemergence,95
same,"Plant response rating, Waterhemp_RES2",[2]; 62 g ai/ha Postemergence,100
same,"Plant response rating, Waterhemp_RES2",[2]; 125 g ai/ha Postemergence,100
same,pest or weed control at 1000 g/ha,"[3]; post-emergence, Postemergence",100%
same,pest or weed control at 1000 g/ha,"[3]; pre-emergence, Preemergence",90%
same,pest or weed control at 1000 g/ha,"[4]; post-emergence, Postemergence",100%
same,pest or weed control at 1000 g/ha,"[4]; pre-emergence, Preemergence",100%
same,pest or weed control at 1000 g/ha,"[5]; post-emergence, Postemergence",100%
same,pest or weed control at 1000 g/ha,"[5]; pre-emergence, Preemergence",100%
same,pest or weed control at 8 g/ha,[6]; 8 g ai/ha Preemergence,75%
same,pest or weed control at 16 g/ha,[6]; 16 g ai/ha Preemergence,95%
same,pest or weed control at 31 g/ha,[6]; 31 g ai/ha Preemergence,98%
same,pest or weed control at 125 g/ha,[6]; 125 g ai/ha Preemergence,100%
same,pest or weed control at 62 g/ha,[6]; Preemergence,98%
same,pest or weed control at 8 g/ha,[7]; [12],20%
same,pest or weed control at 16 g/ha,[7]; [13],30%
same,pest or weed control at 31 g/ha,[7]; [14],35%
same,pest or weed control at 62 g/ha,[7]; [15],50%
same,pest or weed control at 125 g/ha,[7]; [16],70%
same,pest or weed control at 8 g/ha,[7]; [17],0%
same,pest or weed control at 16 g/ha,[7]; [18],35%
same,pest or weed control at 31 g/ha,[7]; [19],50%
same,pest or weed control at 62 g/ha,"[7]; pre-emergence, 62 g ai/ha Preemergence",50%
same,pest or weed control at 125 g/ha,[7]; [20],50%
same,pest or weed control at 8 g/ha,[8]; 8 g ai/ha Preemergence,0%
same,pest or weed control at 16 g/ha,[8]; 16 g ai/ha Preemergence,10%
same,pest or weed control at 31 g/ha,[8]; 31 g ai/ha Preemergence,70%
same,pest or weed control at 62 g/ha,[8]; 62 g ai/ha Preemergence,70%
same,pest or weed control at 125 g/ha,[8]; 125 g ai/ha Preemergence,100%
same,pest or weed control at 8 g/ha,[9]; 8 g ai/ha Preemergence,0%
same,pest or weed control at 16 g/ha,[9]; 16 g ai/ha Preemergence,60%
same,pest or weed control at 31 g/ha,[9]; 31 g ai/ha Preemergence,75%
same,pest or weed control at 62 g/ha,[9]; 62 g ai/ha Preemergence,75%
same,pest or weed control at 125 g/ha,[9]; 125 g ai/ha Preemergence,100%
same,pest or weed control at 8 g/ha,[10]; [12],30%
same,pest or weed control at 16 g/ha,[10]; [13],40%
same,pest or weed control at 31 g/ha,[10]; [14],40%
same,pest or weed control at 62 g/ha,[10]; [15],50%
same,pest or weed control at 125 g/ha,[10]; [16],50%
same,pest or weed control at 8 g/ha,[10]; [17],0%
same,pest or weed control at 16 g/ha,[10]; [18],35%
same,pest or weed control at 31 g/ha,[10]; [19],100%
same,pest or weed control at 125 g/ha,[10]; [20],100%
same,pest or weed control at 62 g/ha,"[10]; pre-emergence, Preemergence",100%
same,pest or weed control at 8 g/ha,[11]; 8 g ai/ha Preemergence,0%
same,pest or weed control at 16 g/ha,[11]; 16 g ai/ha Preemergence,0%
same,pest or weed control at 31 g/ha,[11]; 31 g ai/ha Preemergence,0%
same,pest or weed control at 125 g/ha,[11]; 125 g ai/ha Preemergence,65%
same,pest or weed control at 62 g/ha,[11]; Preemergence,30%
same,pest or weed control at 8 g/ha,kochia (Kochia scoparia); 8 g ai/ha Preemergence,0%
same,pest or weed control at 16 g/ha,"kochia (Kochia scoparia); 16 g ai/ha, Preemergence",40%
same,pest or weed control at 31 g/ha,"kochia (Kochia scoparia); 31 g ai/ha, Preemergence",85%
same,pest or weed control at 125 g/ha,"kochia (Kochia scoparia); 125 g ai/ha, Preemergence",100%
same,pest or weed control at 62 g/ha,kochia (Kochia scoparia); Preemergence,100%
